{"source": "patent US8884027B2", "about": "“Melampomagnolide B derivatives as antileukemic and cytotoxic agents” (University of Rochester, priority 2010, dated 2014)", "key": {"[1]": {"settings": "rats and dogs, cited from earlier work"}, "[2]": {"settings": "cited from earlier work"}, "[3]": {"settings": "cited from earlier work", "remark": "listed apart in the source"}, "IKK-β": {"target": "T1, IKK-β (Homo sapiens, UniProt O14920)", "T1 construct": "endogenous in cells; host or cells: primary leukemia (AML) cells", "T1 sequence (O14920 1-756)": "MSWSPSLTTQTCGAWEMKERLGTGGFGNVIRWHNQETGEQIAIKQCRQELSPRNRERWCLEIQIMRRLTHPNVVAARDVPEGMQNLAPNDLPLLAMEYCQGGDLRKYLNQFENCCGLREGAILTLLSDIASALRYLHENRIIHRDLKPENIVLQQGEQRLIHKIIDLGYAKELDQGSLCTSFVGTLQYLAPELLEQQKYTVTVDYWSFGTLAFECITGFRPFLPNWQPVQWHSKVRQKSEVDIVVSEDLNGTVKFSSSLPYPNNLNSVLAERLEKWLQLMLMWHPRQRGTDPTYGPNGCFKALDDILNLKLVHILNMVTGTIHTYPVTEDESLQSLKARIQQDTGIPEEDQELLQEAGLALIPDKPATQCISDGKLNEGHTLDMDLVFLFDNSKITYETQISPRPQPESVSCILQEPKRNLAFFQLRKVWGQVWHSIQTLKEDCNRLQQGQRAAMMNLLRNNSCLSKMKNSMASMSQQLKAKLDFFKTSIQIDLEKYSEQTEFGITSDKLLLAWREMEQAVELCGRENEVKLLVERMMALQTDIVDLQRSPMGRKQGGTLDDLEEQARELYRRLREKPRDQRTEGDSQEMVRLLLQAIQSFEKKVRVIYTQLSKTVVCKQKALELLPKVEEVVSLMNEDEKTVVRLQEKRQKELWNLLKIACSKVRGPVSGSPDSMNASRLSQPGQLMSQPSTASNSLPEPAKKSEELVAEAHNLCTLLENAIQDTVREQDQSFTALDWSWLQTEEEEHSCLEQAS", "assay": "Streptavidin beads pull-down assay with immunoblot", "assay_type": "binding", "procedure": "Subsequent studies employed 4 as a reagent to identify potential leukemic proteins modified by MMB. Primary human cells were treated with 20 uM 4 for 6 h, followed by lysis and immunoblot analysis using a streptavidin probe. […] Thus, while the chemistry of 4 should be essentially the same in any cell type, there must be intrinsic differences between normal and leukemic cells that lead to the interaction with unique targets. We propose that this differential binding contributes to the leukemia-specific cell death previously described for 1. To further validate the utility of 4 for analysis of protein targets, we performed biochemical pulldown studies. […] Kwok et al. Chem. Bio., 2001, 8, 759. Therefore, we tested whether 4 would also bind this protein. In FIG. 5, primary leukemia cells were pretreated for 2 h with 1 (lanes 2, 5) or biotin control (b.c.) (lanes 3, 6), prior to a 4 h incubation with 4. Cells were then lysed and immuno-precipitated by streptavidin beads. Pulldown products were analyzed by immunoblot to identify specific proteins. […] Kwok et al., Chem. Bio., 2001, 8, 759; Hehner et al., J. Immunol. 1999, 163, 5617.\nTreated cells were washed three times in cold PBS and lysed in Buffer F (10 mM Tris-HCl pH 7.5, 50 mM NaCl, 30 mM Sodium pyrophosphate, 50 mM NaF, 5 μM ZnCl2, 1% Triton X-100) with freshly added proteinase inhibitors (1 mM PMSF, 1×PIC, 0.1 mM Na3OV4). […]"}, "NF-kB p65 subunit": {"target": "T2, NF-kB p65 subunit (Homo sapiens, UniProt Q04206)", "T2 construct": "endogenous in cells; host or cells: primary leukemia (AML) cells", "T2 sequence (Q04206 whole entry)": "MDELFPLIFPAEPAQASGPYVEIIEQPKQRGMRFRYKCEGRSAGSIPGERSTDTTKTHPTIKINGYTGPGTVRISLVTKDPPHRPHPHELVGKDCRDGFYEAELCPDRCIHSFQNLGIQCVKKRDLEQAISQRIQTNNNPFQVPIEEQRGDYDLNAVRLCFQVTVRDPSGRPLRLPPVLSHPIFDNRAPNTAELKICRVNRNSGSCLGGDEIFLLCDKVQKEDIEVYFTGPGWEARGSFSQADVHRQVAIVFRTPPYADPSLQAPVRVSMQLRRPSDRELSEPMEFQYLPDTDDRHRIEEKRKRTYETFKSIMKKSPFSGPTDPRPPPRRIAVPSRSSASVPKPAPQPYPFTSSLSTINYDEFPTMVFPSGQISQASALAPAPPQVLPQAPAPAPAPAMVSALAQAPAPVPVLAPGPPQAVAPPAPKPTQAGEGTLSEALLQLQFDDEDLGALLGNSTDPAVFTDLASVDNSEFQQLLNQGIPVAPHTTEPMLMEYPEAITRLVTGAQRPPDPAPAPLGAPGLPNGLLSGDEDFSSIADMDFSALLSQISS", "assay": "Streptavidin beads pull-down assay with immunoblot", "assay_type": "binding", "settings": "2 h pretreatment before 4; FIG. 5 lane 5", "quoted_text": "Primary human cells were treated with 20 uM 4 for 6 h, followed by lysis and immunoblot analysis using a streptavidin probe. […] Therefore, we tested whether 4 would also bind this protein. […] Cells were then lysed and immuno-precipitated by streptavidin beads. Pulldown products were analyzed by immunoblot to identify specific proteins.\nTreated cells were washed three times in cold PBS and lysed in Buffer F (10 mM Tris-HCl pH 7.5, 50 mM NaCl, 30 mM Sodium pyrophosphate, 50 mM NaF, 5 μM ZnCl2, 1% Triton X-100) with freshly added proteinase inhibitors (1 mM PMSF, 1×PIC, 0.1 mM Na3OV4). Lysates were cleared by 10 mins of 12,000 rpm spinning at 4° C. and the supernatant was incubated with SA beads for 2 hours on an end-to-end rotor at 4° C. Beads were then washed sequentially with 1×PBS, high salt wash buffer (500 mM NaCl in 0.1 M pH 5.0 NaOAc), low pH wash buffer (0.1 M pH 2.8 glycine-HCl), and one last time in 1×PBS. After the wash steps, the SA beads were boiled for 10 mins in 2×SDS-PAGE sample buffer to elute down all pull-down products.\nCell lysates or pull-down products were diluted in 5×SDS-PAGE sample buffer (10% w/v SDS, 10 mM DDT, 20% glycerol, 0.2M Tris-HCl, pH 6.8, 0.05% w/v bromophenol blue), and run on 8-10% SDSPAGE gels. […]"}, "glutathione": {"test_system": "glutathione", "assay": "Metabolomic studies of glutathione", "assay_type": "cell-based", "description": "For example, both thioredoxin and glutathione-S-transferase are targets of MMB. […] Furthermore, MMB also directly binds the major components of the HSP family (HSP60, 70, and 90). […] If true, then MMB could also impair the function of one or more HSPs. Taken together with the genomic data, these findings indicate a unique mechanism of action, where agents of this class act by inducing multiple stress response mechanisms and simultaneously impairing those very same mechanisms from functioning properly."}, "primary leukemia cells": {"test_system": "primary leukemia cells", "assay": "Cell viability assay (Annexin V/7-AAD flow cytometry)", "assay_type": "cell-based, human", "settings": "for concentration achieving efficient induction of cell death: 24 h exposure, FIG. 3B; for anti-leukemia activity compared to PTL (in words): primary AML specimens, FIG. 2", "procedure": "(§1) Primary leukemia cells were treated with varying concentrations of 1, 3 or 4 for six hours, followed by lysis and analysis by immunoblot. Inhibition of NF-κB activity was assessed by measuring phosphorylation of the NF-κB p65 subunit at Ser-536. […] To further evaluate the cytoxicity of 3 and 4, cell viability was measured following 24 h exposure to each compound. […] To achieve a similar degree of cell death with 4, treatment at 20-30 μM was required, in good agreement with the NF-κB phosphorylation analysis shown in FIG. 3A. Thus, while 3 and 4 retain the biological properties of 1, the activity of 4 is reduced approximately 2-fold. The minor loss in activity might be attributed to steric hindrance resulting from the addition of the bulky biotin moiety.\nCells treated with different concentrations of 1, 3 or 4 were washed with cold PBS and resuspended in 200 μL of Annexin binding buffer (10 mM HEPES/NaOH pH 7.4; 140 mM NaCl; 2.5 mM CaCl2). Annexin-V and 7-amino-actinomycin (7-AAD) were added and the tubes were incubated at ambient temperature in the dark for 15 mins. Cells were then diluted with 200 μL of Annexin binding buffer and analyzed immediately by flow cytometry. Viable cells were scored as Annexin V negative/7-AAD negative. Percent viability data provided are normalized to untreated control specimens."}, "[4]": {"test_system": "NF-κB p65 subunit at Ser-536", "assay": "Inhibition of NF-κB activity: immunoblot of phosphorylated p65 in primary leukemia cells", "assay_type": "cell-based, human", "settings": "primary leukemia cells treated six hours, FIG. 3A", "procedure": "as §1\nCell lysates or pull-down products were diluted in 5×SDS-PAGE sample buffer (10% w/v SDS, 10 mM DDT, 20% glycerol, 0.2M Tris-HCl, pH 6.8, 0.05% w/v bromophenol blue), and run on 8-10% SDSPAGE gels. Protein gels were then transferred to PVDF membrane and blocked with 5% milk in 0.1% TBST (20 mM Tris-HCl pH 7.5, 137 mM NaCl, 0.1% Tween 20), followed by incubation with antibodies against p-p65(ser 536) (Cell Signaling), IKK-β (Cell Signaling), p65 (Santa Cruz), β-actin (Sigma), or SA-HRP probe (Thermo)."}, "Water solubility": {"assay": "Water solubility", "assay_type": "physicochemical", "procedure": "Detailed SAR studies of PTL were performed to better understand the basic chemistry required to mediate anti-leukemia activity. […] In biological systems, the consequences of this reactivity are most prevalent for free thiols and cysteine residues. […] A series of PTL analogs was previously prepared with the goal of creating a more therapeutically useful derivative (Neelakantan et al., 2009). […] In addition, DMAPT retains virtually identical anti-leukemia properties as PTL, including the ability to selectively target LSCs. […] Based on these findings, DMAPT has advanced to phase 1 clinical trials, and is currently being evaluated in patients with advanced hematologic malignancies. DMAPT and certain PTL analogs are disclosed in U.S. Pat. Nos. 7,312,242 and 7,678,904, each of which is incorporated herein by reference.\nThe predicted poor oral bioavailability likely results from low aqueous solubility, since this causes a low dissolution-rate, which is often the rate-limit step during oral drug absorption. Fleisher et al., Improved oral drug delivery: solubility limitations overcome by the use of prodrugs. Adv Drug Deliv Rev, 19:115-130, 1996; Taylor, Improved passive oral drug delivery via prodrugs. Adv Drug Deliv Rev, 19:131-148, 1996. Furthermore, low water solubility can itself be a source of toxicity, due to precipitation of the drug, causing crystalluria. […]"}}, "note": "“Also recorded” adds a separate entry of the source."}
{"smiles": "C/C1=C\\CC[C@@]2(C)O[C@@H]2[C@H]2OC(=O)[C@H](CN(C)C)[C@@H]2CC1", "note": "[DMAPT, dimethylaminoparthenolide]", "values": [{"measurement": "oral bioavailability", "setting": "[1]", "result": 70, "unit": "%"}, {"measurement": "tolerability", "setting": "[1]; doses resulting in serum concentrations of up to 10-fold excess of the biologically active concentration", "result": "well tolerated"}, {"measurement": "water solubility relative to PTL", "setting": "[2]; formulated as a fumarate salt", "result": "~1000", "unit": "fold"}, {"measurement": "in vivo half-life", "setting": "[3]", "result": "approximately two"}]}
{"smiles": "C=C1C(=O)O[C@H]2[C@H]1CC/C(C)=C/CC[C@@]1(C)O[C@@H]21", "note": "[PTL, parthenolide]", "values": [{"measurement": "effect of preincubation on binding of IKK-β to 4", "setting": "IKK-β; 2 h pretreatment before 4, FIG. 5 lane 5", "result": "potently reduced binding"}, {"measurement": "effect of preincubation on binding of p65 to 4", "setting": "NF-kB p65 subunit", "result": "potently reduced binding"}, {"measurement": "reduction of glutathione", "setting": "glutathione", "result": 11.2, "unit": "fold"}, {"measurement": "water solubility (in words)", "setting": "[2]", "result": "relatively water-insoluble"}]}
{"smiles": "C=C1C(=O)O[C@@H]2[C@H]3O[C@]3(C)CC/C=C(\\COC(=O)CCCCCCCCCCCNC(=O)CCCC[C@@H]3SC[C@@H]4NC(=O)N[C@@H]43)CC[C@@H]12", "note": "[Prodrug 4, 14-[N-(Biotinyl)-12-aminododecanoxy]melampomagnolide B]", "values": [{"measurement": "concentration achieving efficient induction of cell death", "setting": "primary leukemia cells", "result": "20 to 30", "unit": "µM"}, {"measurement": "reduction of activity relative to 1", "setting": "primary leukemia cells; from viability and NF-κB phosphorylation analysis", "result": "approximately 2 fold"}, {"measurement": "binding of IKK-β in pull-down", "setting": "IKK-β; primary leukemia cells, 4 h incubation with 4, FIG. 5", "result": "one product identified was IKK-β"}, {"measurement": "concentration at which a significant loss of phosphorylation of NF-κB p65 is observed", "setting": "[4]", "result": 20, "unit": "µM"}]}
{"smiles": "C=C1C(=O)O[C@@H]2[C@H]3O[C@]3(C)CC/C=C(\\CO)CC[C@@H]12", "note": "[MMB, Melampomagnolide B]", "values": [{"measurement": "concentration achieving efficient induction of cell death", "setting": "primary leukemia cells", "result": 7.5, "unit": "µM"}, {"measurement": "anti-leukemia activity compared to PTL (in words)", "setting": "primary leukemia cells", "result": "indistinguishable from PTL; also recorded: identical anti-leukemia activity compared to PTL"}, {"measurement": "anti-leukemia activity compared to PTL (in words)", "setting": "primary leukemia cells; listed as 3", "result": "potency and selectivity similar to 1"}, {"measurement": "solubility in aqueous media (in words)", "setting": "Water solubility", "result": "sparingly soluble"}, {"measurement": "concentration at which a significant loss of phosphorylation of NF-κB p65 is observed", "setting": "[4]", "result": 7.5, "unit": "µM"}]}
